Patent US20040010018A1, “Treatment of neuropathic pain” (priority 2002, published 2004)
“Also recorded” adds a separate entry of the source. Structures can show the parent of a compound that is named as a salt.

How the values were obtained:
[1] = system: neuropathic pain (mechanical allodynia); test: mechanical allodynia (von Frey) in the rat spinal nerve ligation model of neuropathic pain; assay type: in vivo; conditions: for effect of antagonist pretreatment on A-85380 induced anti-allodynia: A-85380 0.75 μmol/kg i.p.
Description: Under halothane anesthesia, the L5 and L6 spinal nerves were tightly ligated in the manner described previously by Chung et al. (Kim S. H., Chung J. M., An experimental model for peripheral neuropathy produced by segmental spinal nerve ligation in the rat. Pain 1992; 50:355-363.). Briefly, an incision was made on the dorsal portion of the hip, and the muscle was blunt dissected to reveal the spinal processes. The L6 transverse process was removed, and the left L5 and L6 spinal nerves were tightly ligated with 5.0 braided silk suture. The wound was cleaned, the membrane sewn with 4.0 dissolvable Vicryl suture and the skin closed with wound clips.
Implantation of the DRG catheters was performed immediately following nerve ligation, with animals maintained under halothane for the entire procedure (35-40 minutes). Catheters were constructed of PE 20 with small pieces of tygon tubing cemented along the catheter to allow for suture anchoring points during surgery. The left L5 DRG was exposed by removing the posterior articular process of the L5 vertebra. Gelfoam was inserted into the cavity to prevent the catheter from damaging the ganglion. The catheter was sutured to the muscle and fascia, then run subcutaneously to exteriorize between the shoulder blades. Saline was infused into the catheter, and it was heat sealed.
The implantation of i.c.v. cannulae were conducted under sodium pentobarbital (50 mg/kg, i.p. Nembutal) anesthesia with nerve ligation occurring just after the implantation; animals were maintained under anesthesia for the entire procedure (40-45 minutes). Animals were implanted with a 22 gauge guide cannulae (Plastics One, Roanoke Va.) cut to 6 mm. The stereotaxic coordinates from bregma were 1.0 mm posterior, 1.6 mm lateral, and 4.5 ventral (Paxinos G. and Watson C., The rat brain in stereotaxic coordinates. New York: Academic Press, 1997). Three skull screws were attached for stability, and the implant was covered with cranioplastic acrylic.
For i.c.v. (intracerebroventricular) infusion, chlorisondamine (10 μg) was dissolved in 5 μl phosphate buffered saline and infused by syringe pump at a rate of 5 μl/min. The infusion was performed 24 hours prior to testing in order to reduce stress to the animals immediately prior to behavioral testing.
For all other routes of administration including intraperotineal (i.p.), intradermal (i.d.) or onto the DRG, chlorisondamine was dissolved in saline. The final volumes for i.p. injections were 1 ml/kg, for i.d. were 50 μl and for DRG injections were 10 μl. All injections were made by hand held syringe.
For the assessment of neuropathic pain, mechanical allodynia in the affected paw of animals who had undergone spinal nerve ligation was evaluated using von Frey filaments. As described previously (Chaplan et al, Quantitative assessment of tactile allodynia in the rat paw. J Neurosci Meth, 1994; 53:55-62), two weeks following surgery, rats were acclimated to the testing box which was constructed of plexiglass with a wire mesh floor to allow access to the planter surface of the hind paws. Using the Dixons Up-Down method, a baseline level of allodynia was taken with allodynia defined as a withdrawal threshold <4 g. Test compounds were then administered and subsequent withdrawal thresholds determined.
For spinal nerve ligation experiments, the timing of antagonist administration depended upon the route of administration. With i.c.v. administration, chlorisondamine or its vehicle was given 24 hours prior to further manipulation. On the day of the experiment, a baseline allodynia score was determined and then A-85380 or its vehicle control was given and measures taken at 15, 30 and 60 minutes post agonist injection. Dose response curves for i.p., i.d. and DRG administration were also determined using this time line. […]

[2] = system: acute thermal pain; test: rat paw withdrawal model of acute thermal pain using neuropathic rats; assay type: in vivo; conditions: chlorisondamine 0.4 μmol/kg i.p., A-85380 0.75 μmol/kg i.p.
Description: (§1) For the assessment of acute pain, a paw thermal stimulator was used to evaluate nociceptive responses to an acute thermal stimulus (Anesthesiology Research Laboratory, Department of Anesthesiology, University of California at San Diego, La Jolla, Calif.). The device and behavioral procedure have been described previously (Hargreaves et al., A new and sensitive method for measuring thermal nociception in cutaneous hyperalgesia, Pain 1988, 32:77-88; Dirig et al., Characterization of variables defining hind paw withdrawal latency evoked by radiant thermal stimuli, J. Neurosci. Meth. 1997; 76:183-191). Briefly, rats were placed in Plexiglas boxes on a glass surface maintained at 30° C. and allowed to acclimate for 30 minutes. The measured nociceptive response was the latency to withdraw the hind paw when heated by light from a focused projector lamp (current set at 4.8 A). The final score was the mean of the latencies for the left and right paw. To avoid tissue damage, the maximal response latency prior to automatic shutoff of the lamp was 20.5 sec.
(§2) For acute thermal pain experiments, a baseline withdrawal threshold was determined, and then chlorisondamine or its vehicle was administered. […]
To address this concern, neuropathic rats were assessed in the acute thermal model of paw withdrawal. […]

[3] = system: acute thermal pain; test: rat paw withdrawal model of acute thermal pain, normal rats; assay type: in vivo; conditions: chlorisondamine 0.4 μmol/kg i.p. 30 min prior, A-85380 0.75 μmol/kg i.p.
Description: as §1, with “To avoid tissue damage, the maximal response latency prior to automatic shutoff of the lamp was 20.5 sec.” left out
as §2
The effect of systemically administered chlorisondamine in a model of acute thermal pain was examined. […] The effect of systemically administered chlorisondamine (0.4 μmol/kg, i.p.) on A-85380 (0.75 μmol/kg, i.p.) was assessed.

[4] = system: persistent pain; test: formalin model of persistent pain (phase two); assay type: in vivo, rat; conditions: A-85380 0.75 μmol/kg i.p.
Protocol: The formalin test was used as an assessment of persistent pain. The method, described previously (Bannon et al. 1998) is briefly as follows. Following acclimation to the test environment, 50 μl of a 5% formalin solution was injected subcutaneously into the dorsal surface of one of the rear paws. Only phase two, defined as the 20 minute period from 30 to 50 minutes post formalin injection, was scored for nocifensive behaviors including flinching, licking, and biting.
For formalin experiments, chlorisondamine or its vehicle was infused either 24 h or 40-50 minutes prior to further manipulation. A-85380 was then injected and, 5 minutes later, formalin was injected into the paw. Measures were taken between 30 and 50 minutes post formalin injection.
The effect of centrally and systemically administered chlorisondamine in a model of persistent pain was examined. Using phase two of the formalin model of persistent pain, chlorisondamine (10 μg) was administered i.c.v. 24 hours prior to the systemic administration of A-85380.

[5] = given systemically (i.p.); cited from earlier work
[6] = observed side effects / behaviors after injection in neuropathic rats; assay type: in vivo, rat
[7] = chlorisondamine 10 μg i.c.v. 24 hours prior

SMILES: C[N+](C)(C)CCCCCC[N+](C)(C)C [Hexamethonium, hexamethonium]
- effect of antagonist pretreatment on A-85380 induced anti-allodynia ([1]; hexamethonium 19 μmol/kg i.p. 30 minutes prior): blocked

SMILES: C[N+](C)(C)CC[N+]1(C)Cc2c(Cl)c(Cl)c(Cl)c(Cl)c2C1 [chlorisondamine, chlorisondamine diiodide]
- effect of antagonist pretreatment on A-85380 induced antinociception (paw withdrawal latency) [2]: did not alter; also recorded: does not alter
- effect of antagonist pretreatment on A-85380 induced anti-allodynia ([1]; chlorisondamine 0.4 μmol/kg i.p. 30 minutes prior): completely blocked
- effect of antagonist pretreatment on anti-allodynia induced by A-85380 infused onto the DRG ([1]; chlorisondamine 0.4 μmol/kg i.p. 30 minutes prior, A-85380 20 μg onto DRG): completely blocked
- effect of antagonist pretreatment on A-85380 induced anti-allodynia [1, 7]: completely blocked
- effect of antagonist pretreatment on A-85380 induced antinociception (paw withdrawal latency) [3]: no effect; also recorded: completely ineffective
- effect of antagonist pretreatment on A-85380 induced analgesia (flinches, phase two) ([4]; chlorisondamine 0.4 μmol/kg i.p. 40-50 minutes prior to formalin): no significant attenuation; also recorded: no significant effect
- effect of antagonist pretreatment on A-85380 induced analgesia (flinches, phase two) [4, 7]: completely blocked

SMILES: Cl.Cl.c1cncc(OC[C@@H]2CCN2)c1 [A-85380, 3-(2(S)-azetidinylmethoxy)pyridine dihydrochloride]
- anti-allodynia (paw withdrawal threshold) ([1]; 10 μg infused onto the L5 DRG): significant anti-allodynia
- duration of anti-allodynia ([1]; 10 μg infused onto the L5 DRG): 15 min
- anti-allodynia (paw withdrawal threshold) ([1]; 20 μg infused onto the L5 DRG): significant anti-allodynia
- duration of anti-allodynia ([1]; 20 μg infused onto the L5 DRG): 30 min
- anti-allodynia in the affected paw (paw withdrawal threshold) ([1]; 10, 20 and 50 μg/rat i.d. into plantar surface of contralateral (unaffected) paw, dihydrochloride): all three doses of A-85380 induced a significant anti-allodynia; also recorded: equivalent or greater anti-allodynia
- anti-allodynia in the affected paw (paw withdrawal threshold) ([1]; 10, 20 and 50 μg/rat i.d. into plantar surface of ipsalateral (affected) paw, dihydrochloride): only the 50 μg dose of A-85380 had an anti-allodynic effect; also recorded: small but significant anti-allodynia
- dose required for significant reduction in allodynia ([1]; central NNRs blocked with chlorisondamine 10 μg i.c.v.): 3 µmol/kg
- reduction in allodynia with peripheral NNRs blocked ([1]; chlorisondamine 0.4 μmol/kg i.p. pretreatment, systemic A-85380): significant reduction in allodynia
- reduction in allodynia with central NNRs blocked ([1]; chlorisondamine 10 μg i.c.v. pretreatment, systemic A-85380): significant reduction in allodynia
- potency to increase paw withdrawal threshold, i.p. compared with i.d. administration ([1]; doses converted to equivalent systemic dose, 15 minute time point): similar
- potency to increase paw withdrawal threshold, DRG administration compared with i.p. and i.d. ([1]; doses converted to equivalent systemic dose, 15 minute time point, dihydrochloride): decidedly more potent; also recorded: most potent
- dose required for significant reduction in allodynia ([1]; given without an antagonist): 0.75 µmol/kg
- anti-allodynia (paw withdrawal threshold) ([1]; infused directly onto the L5 DRG, different doses): dose-dependent anti-allodynic effect
- dose required for significant reduction in allodynia ([1]; peripheral NNRs blocked with chlorisondamine 0.4 μmol/kg i.p.): 1.5 µmol/kg
- anti-allodynia (paw withdrawal threshold) ([1]; systemically administered (i.p.), no antagonist, dihydrochloride): significant, dose-dependent decrease; also recorded: dose dependent anti-allodynia; also recorded: dose-dependent anti-allodynia
- crossing of the blood brain barrier [5]: readily crosses the blood brain barrier
- behaviors induced immediately following injection ([6]; 0.5-1.0 μmol/kg, i.p.): prostration and ataxia
- time point by which prostration and ataxia abated ([6]; 0.5-1.0 μmol/kg, i.p.): ≤ 15 min
- side effects with peripheral NNRs blocked ([6]; chlorisondamine 0.4 μmol/kg i.p. pretreatment, A-85380 at increased dose): significant increase in side effects
- side effects with central NNRs blocked ([6]; chlorisondamine 10 μg i.c.v. pretreatment, A-85380 at increased dose): almost no side effects
- side effects accompanying the reduction in allodynia ([6]; given systemically (i.p.), no antagonist): prostration, ataxia, bracing and dyspnea

SMILES: CNC1(C)C2CCC(C2)C1(C)C (stereo not drawn) [Mecamylamine, mecamylamine hydrochloride]
- effect of antagonist pretreatment on A-85380 induced anti-allodynia ([1]; mecamylamine 1 μmol/kg i.p. 30 minutes prior, hydrochloride): completely blocked
- effect of antagonist pretreatment on A-85380 induced anti-allodynia ([1]; mecamylamine 1 μmol/kg i.p. 30 minutes prior, listed as mecamylamine, hydrochloride): full blockade
- effect of antagonist pretreatment on prostration and ataxia following A-85380 injection ([6]; mecamylamine 1 μmol/kg i.p. 30 minutes prior to A-85380): blocked

SMILES: O=C(NO)c1cncc(N2C[C@H]3CNC[C@H]32)c1 [A-420503, (IR, 5S) 5-(3,6-diazabicyclo [3.2.0]hept-6-yl)-N-hydroxy-nicotinamide]
- anti-allodynia ([1]; 62 μmol/kg, i.p.): significant anti-allodynia
- effects at the DRG after pretreatment with an NMR antagonist ([1]; DRG administration): blocked
- anti-allodynia ([1]; at the DRG, equivalent to 4.77 μmol/kg i.p.): significant anti-allodynia
- side effects ([6]; 62 μmol/kg, i.p.): without any notable side effects
